The assay concerns Male Sprague-Dawley rats. Particulars: six-hour delay.

Read-outs that look alike come from different tables or passages of the source.

On to `Nc1c2c(nc3ccccc13)CCCC2` [Tacrine, tacrine], for which the “retention (errors in the retention session)” value (3 mg/kg s.c. immediately after the sampling phase) is “not” and the “retention (errors in the retention session)” value (10 mg/kg s.c. immediately after the sampling phase) was “significantly improved retention”.
